Assay [1] has as its system 5'-AGCA overhang on iM7 (DNA, i motif) AGCACCCCTTTCCC
Put plainly: fluorescence enhancement. To be noted: 2 mM MgCl2; TAE pH 5; 1 μM DNA, 3 μM THIA.

Assay [2] concerns 5'-AGAA overhang on iM7 (DNA, i motif) AGAACCCCTTTCCC
Put plainly: fluorescence enhancement. To be noted: 2 mM MgCl2; TAE pH 5; 1 μM DNA, 3 μM DSMB.

Assay [3] relates to iM7 (C4T3C3) (DNA, i motif) CCCCTTTCCC
In words: CD melting at 290 nm. To be noted: 2 mM MgCl2; TAE pH 5; 50 μM DNA, 150 μM ThT; Tm stated unchanged.

The test system of assay [4] is 5'-AGGA overhang on iM9 (DNA, i motif) AGGACCCCCTTTCCCC
In words: fluorescence enhancement. The conditions noted are these: 2 mM MgCl2; TAE pH 5, 22°C; 1 μM DNA, 3 μM ThT.

Assay [5] has as its system 5'-GGA overhang on iM7 (DNA, i motif) GGACCCCTTTCCC
Put plainly: fluorescence enhancement. To be noted: 2 mM MgCl2; TAE pH 5, 22°C; 1 μM DNA, 3 μM ThT.

Assay [6] deals with TiM9 (TGGAC5T3C4) (DNA, i motif) TGGACCCCCTTTCCCC
In words: fluorescence titration. The conditions noted are these: 2 mM MgCl2; TAE pH 5, 22°C; 3 μM ThT titrated with DNA.

The test system is the same in assay [7]. In words: CD melting at 290 nm. The conditions noted are these: 2 mM MgCl2; TAE pH 5; 50 μM DNA, 150 μM ThT.
Assay [8] deals with TiM7 (5'-TGGA-C4T3C3) (DNA, i motif) TGGACCCCTTTCCC
In words: fluorescence titration. To be noted: 2 mM MgCl2; TAE pH 5, 22°C; 3 μM ThT titrated with DNA.

In assay [9] the test system is 3'-GGGA on C3T3C4 (DNA, i motif) CCCTTTCCCCGGGA
Put plainly: fluorescence enhancement. To be noted: 2 mM MgCl2; TAE pH 5, 22°C; 1 μM DNA, 3 μM ThT.

Assay [10] concerns 5'-GGA overhang on iM9 (DNA, i motif) GGACCCCCTTTCCCC
In words: fluorescence enhancement. The conditions noted are these: 2 mM MgCl2; TAE pH 5, 22°C; 1 μM DNA, 3 μM ThT.

In assay [11] the test system is TiM7 (5'-TGGA-C4T3C3) (DNA, i motif) TGGACCCCTTTCCC
In words: CD melting at 290 nm. The conditions noted are these: 2 mM MgCl2; TAE pH 5; 50 μM DNA, 150 μM ThT.

Assay [12] relates to iM9 (C5T3C4) (DNA, i motif) CCCCCTTTCCCC
In words: CD melting at 290 nm. The conditions noted are these: 2 mM MgCl2; TAE pH 5; 50 μM DNA, 150 μM ThT; Tm stated unchanged.

Assay [13] deals with FNA-TiM9 (Th46/Th58 tetrahedron heterodimer tethered with TiM9) (DNA, other) TTCAGACGGAATGTGCTTCCCAAGTGTCGTTTGTATTGGCTCGCAT/TCAACTGGGTGATAAAACGACACTTGGGAATCTACTATGGCTCTTC/TATCACCCAGTTGACAGTGTAGCATGTAATAGATGCGAGCCAATAC/ACATTCCGTCTGAAACATTACATGCTACACGAGAAGAGCCATAGTATTTTTTTTATAAATAATTGGACCCCCTTTCCCC/TTCAGACTTAGGAATGTTGCTTCCCACGTAGTGTCGTGTTGGTATTGGACCCTCGCAT/TCAACTGCCTGGTGATAAAACACGACACTACGTGGGAATCTTACTATGGCGGCTCTTC/TTATCACCAGGCAGTTGACAGGTGTAGCAAGCTGTAATAGATGCGAGGGTCCAATACC/AACATTCCTAAGTCTGAAACATTACAGCTTGCTACACCGAGAAGAGCCGCCATAGTAATTTTTTAATATTTATAATGGACCCCCTTTCCCC
Put plainly: fluorescence enhancement. To be noted: 2 mM MgCl2; TAE pH 5; 0.4 μM FNA, 0.4 μM ThT; over 20-fold fluorescence increase versus pH 8.

Assay [14] concerns 3'-GGGA on C4T3C5 (DNA, i motif) CCCCTTTCCCCCGGGA
In words: fluorescence enhancement. To be noted: 2 mM MgCl2; TAE pH 5, 22°C; 1 μM DNA, 3 μM ThT.

Assay [15] concerns 5'-AGGA overhang on iM7 (DNA, i motif) AGGACCCCTTTCCC
In words: fluorescence enhancement. To be noted: 2 mM MgCl2; TAE pH 5, 22°C; 1 μM DNA, 3 μM ThT.

On to `CCN1/C(=C/c2sc3ccccc3[n+]2CC)Sc2ccccc21`, for which the binding result in [1] is given as “yes”.

On to `CN(C)c1ccc(/C=C/c2sc3ccccc3[n+]2C)cc1`, for which the binding entry in [2] is “yes”.

As for `Cc1ccc2c(c1)sc(-c1ccc(N(C)C)cc1)[n+]2C`, the binding entry in assay [3] was “weak”; in assay [4], “yes”; in assay [5], “weak”; in [7], “yes”; in assay [9], “yes”; in assay [10], “weak”. Besides, the binding result is recorded as “yes” in [11]; “weak” in assay [12]; “yes” in assay [13]; “yes” in assay [14]; “yes” in assay [15]. The Kd in assay [6] was ~ 5.7 μM; in [8], ~ 3.9 μM.

(Values after article PMC7039006 (2020).)
